Where two headings read alike, the source gives them in different places.
Tests used:
MDA-MB-231 cells [1] = experiment: Cell migration, wound healing (scratch) assay; format: cell-based, human; details: from AUC0-18h of wound confluence, n = 5; for logEC50 (migration of MDA-MB-231 cells): mean ± SEM
Experimental: The effect of compounds on cell migration was studied using wound healing assay (or scratch assay). Triple-negative breast cancer MDA-MB-231 cells were seeded in 24-well microplate at the cell density 12.5 × 10^4 cells/cm^2 (1 mL final volume) and left 24 h to attach and create a confluent monolayer. The cell monolayer was scratched with 200 µL pipette tip, producing a vertical straight wound in the middle of the well; growth medium was removed and wells were washed twice with growth medium to remove all detached cells. […] Wound closure was analyzed as a confluence of the initial cell-free area covered by migrating cells at the indicated time points measured with Gen 5 Image Analysis software. Confluence was calculated using the following formula: C(t) = [(Object Sum Area(t) − Object Sum Area(0))/(I(A) − Object Sum Area(0))] × 100, where C(t) is the percent wound confluence over time, Object Sum Area(t) is the area covered by cells at each time point, Object Sum Area(0) is the area covered by cells at time 0 h and I(A) is the total area of the 4X image.

[2] = system: Ehrlich ascites carcinoma (EAC); details: 4 mg/kg, cited from earlier work; for tumor volume reduction: two injections per week for 2 weeks (cumulative 16 mg/kg); for deaths during treatment: two injections per week for 2 weeks
MDA-MB-231 cells [3] = experiment: Cell proliferation assay (label-free live cell counting), MDA-MB-231; format: cell-based, human
Experimental: The human triple-negative breast cancer cell line MDA-MB-231 (ATCC HTB-26) (absence of estrogen and progesterone receptors, […]) and the non-cancerous breast cell line MCF-12A (ATCC CRL-10782) were purchased from ATCC (Manassas, VA, USA). MDA-MB-231 cells were cultured in DMEM-HG cell growth medium supplemented with 10% (v/v) FBS. MCF-12A cells were cultured in DMEM/F12 medium supplemented with 20 ng/mL hEGF, 100 ng/mL cholera toxin, 0.01 mg/mL bovine insulin, 500 ng/mL hydrocortisone and 5% (v/v) horse serum. Cells were cultured in monolayers in a sterile environment at 37 °C with 5% CO2 humidified atmosphere. Under these conditions, the population doubling time was 25.5 ± 0.9 h and 20.6 ± 3.1 h for MDA-MB-231 and MCF-12A cells, respectively. The cell cultures were routinely screened for mycoplasma contamination, yielding negative results.
Cells were seeded in 96-well microplates at the cell density 1.5 × 10^4 cells/cm^2 (final volume 200 µL/well) and left 24 h to attach. […] Label-free kinetic live monitoring of cell proliferation was performed using LionheartFX automated microscope (BioTek, Winooski, VT, USA) with direct image acquisition of cells in microplates at 0, 24, 48 and 72 h post-addition of the tested compounds. Acquired 4X images were processed using Gen 5 Image Analysis software (BioTek, Winooski, VT, USA) that allows for identification and counting of individual cells per image. The normalized cell growth (%) was calculated using the following formula: C(t) = [(Number of Treated Cells(t) − Number of Treated Cells(0))/(Number of Untreated Cells(t) − Number of Untreated Cells(0))] × 100, where C(t) is the percent of net cell growth over time, Number of Treated Cells(t) is the count of cells treated with drug at each time point, Number of Treated Cells(0) is the count cells treated with drug at time 0 h, Number of Untreated Cells(t) is the count of untreated (control) cells at each time point, Number of Untreated Cells(0) is the count of untreated (control) cells at time 0 h.

[4] = mice; cited from earlier work
MDA-MB-468 TNBC cells = details: cited from earlier work
breast cancer cells = details: cited from earlier work
[5] = Hematological and plasma biochemical analyses in tumor-bearing mice; format: in vivo; details: Pd2Spm 5 mg/kg/day, cisplatin 2 mg/kg/day, end of study
Experimental: Red blood cells (RBC), hemoglobin (Hb), hematocrit (Hct), mean corpuscular volume (MCV) and mean corpuscular hemoglobin (MCH) were analyzed in a small aliquot of whole blood using ABX Micros 60 automated analyzer (Horiba ABX SAS, Montpellier, France). The remaining blood was centrifuged at 900× g for 15 min, and plasma was separated into aliquots and frozen at −80 °C for biochemical assays. Plasma parameters were analyzed using commercial kits for aspartate aminotransferase—AST (AST CP, A11A01629), alanine transaminase—ALT (ALT CP, A11A01627), cholesterol (CHOL CP, A11A01634), creatinine (Creatinine 120 CP, A11A01868), glucose (Glucose PAP CP, A11A01668), total protein (Total protein CP, A11A01669), triglycerides (Triglycerides CP, A11A01640) and urea (Urea CP, A11A01641). All parameters were determined with an automated analyzer Pentra 400 (ABX Horiba diagnostics, Montpellier, France).

MDA-MB-231 = details: cited from earlier work
[6] = MDA-MB-231, 24 h of incubation, n = 4
[7] = MDA-MB-231, 24 h of incubation, n = 4, read-out: IC50 in µM [95% CI]
[8] = MDA-MB-231, 48 h of incubation, n = 4
[9] = MDA-MB-231, 48 h of incubation, n = 4, read-out: IC50 in µM [95% CI]
[10] = MDA-MB-231, 72 h of incubation, n = 4
[11] = MDA-MB-231, 72 h of incubation, n = 4, read-out: IC50 in µM [95% CI]

Row | Structure (SMILES) | logEC50 (migration of MDA-MB-231 cells) (MDA-MB-231 cells [1]) | EC50 (MDA-MB-231 cells [1]) [µM] | tumor volume reduction ([2]; first study) [%] | tumor volume reduction ([2]; second study) [%] | deaths during treatment ([2]; first study) | deaths during treatment ([2]; second study) | logIC50 ± SEM (MDA-MB-231 cells [3]; [6]) | IC50 (MDA-MB-231 cells [3]; [7]) [µM] | logIC50 ± SEM (MDA-MB-231 cells [3]; [8]) | IC50 (MDA-MB-231 cells [3]; [9]) [µM] | logIC50 ± SEM (MDA-MB-231 cells [3]; [10]) | IC50 (MDA-MB-231 cells [3]; [11]) [µM] | accumulation in major organs relative to cisplatin [4] | serum terminal half-life relative to cisplatin [4] | IC50 values (MDA-MB-468 TNBC cells) | amount accumulated in breast cancer cells relative to cisplatin (breast cancer cells) | hematologic analysis (RBC, Hb, Htc, MCV, MCH) versus vehicle [5] | plasma biochemical analysis (urea, creatinine, glucose, AST, ALT, total proteins, triglycerides, total cholesterol) versus vehicle [5] | IC50 values (MDA-MB-231) | IC50 (MDA-MB-231 cells [3]; MDA-MB-231, 24-72 h, read-out: IC50 values (range over incubation times)) [µM]
1 | N.N.[Cl][Pt][Cl] [Cisplatin, cis-dichlorodiammine platinum(II), reference compound] | −4.329 ± 0.130 | 46.9 | 36.4 | 46.7 | two associated deaths | no associated deaths | −5.459 ± 0.036 | 3.5 | −6.005 ± 0.027 | 1 | −6.043 ± 0.020 | 0.9 | – | – | – | – | – | – | – | –
2 | NCCCNCCCCNCCCN.[Cl][Pd][Cl].[Cl][Pd][Cl] [Pd2Spm, dinuclear palladium(II)-spermine chelate] | −4.243 ± 0.113 | 57.2 | – | – | – | – | −5.081 ± 0.024 | 8.3 | −5.105 ± 0.022 | 7.9 | −5.137 ± 0.021 | 7.3 | lower accumulation in major organs | very similar serum terminal half-life to cisplatin | within a low micromolar range | approximately four times lower | no significant deviations | did not reveal changes | within a low micromolar range | 7.3 to 8.3
